Calls of active or inactive are those of the source. Rule as the data show it, for most assays here: actives have a measured EC50 and inactives only a lower limit.
What was measured:
[1] = biological target: T1, Corticotropin-releasing factor receptor 2/Corticotropin-releasing factor-binding protein (Homo sapiens, UniProt P24387+Q13324); assay: Dose Response confirmation of uHTS hits for small molecule antagonists of the CRF-binding protein and CRF-R2 receptor complex.; format: functional; settings: read-out: IC50_Mean
T1 sequence (Q13324 whole entry): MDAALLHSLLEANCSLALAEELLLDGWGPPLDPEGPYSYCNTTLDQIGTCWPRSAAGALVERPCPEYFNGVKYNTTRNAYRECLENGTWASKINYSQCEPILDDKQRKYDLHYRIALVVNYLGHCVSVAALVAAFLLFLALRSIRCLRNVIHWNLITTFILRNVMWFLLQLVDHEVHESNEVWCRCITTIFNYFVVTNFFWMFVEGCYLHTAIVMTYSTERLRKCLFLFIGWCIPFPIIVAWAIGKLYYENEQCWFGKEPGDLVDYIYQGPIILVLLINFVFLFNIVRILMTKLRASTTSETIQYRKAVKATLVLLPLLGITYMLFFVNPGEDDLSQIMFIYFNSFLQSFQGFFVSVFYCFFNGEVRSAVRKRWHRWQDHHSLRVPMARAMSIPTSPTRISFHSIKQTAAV
T1 sequence (P24387 whole entry): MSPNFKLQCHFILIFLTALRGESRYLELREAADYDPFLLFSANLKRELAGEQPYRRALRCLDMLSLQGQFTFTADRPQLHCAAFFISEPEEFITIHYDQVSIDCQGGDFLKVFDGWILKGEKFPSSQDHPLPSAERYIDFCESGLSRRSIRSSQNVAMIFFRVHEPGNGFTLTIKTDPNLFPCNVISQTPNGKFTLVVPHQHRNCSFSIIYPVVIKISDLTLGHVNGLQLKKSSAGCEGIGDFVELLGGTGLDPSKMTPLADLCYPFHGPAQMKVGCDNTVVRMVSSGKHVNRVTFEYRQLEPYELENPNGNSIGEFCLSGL

[2] = biological target: T1, Corticotropin-releasing factor receptor 2/Corticotropin-releasing factor-binding protein; assay: activators of CRF receptor 2 with binding protein – uHTS hits, confirmation (AID 602473); format: functional; settings: read-out: EC50_Mean
[3] = biological target: T2, Heat shock factor protein 1 (Mus musculus, UniProt P38532); assay: enhancement of HSF1-driven luciferase signal – cell-based, NIH3T3, luminescence, dose retest, confirmation (AID 435004); format: functional;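 also: stress induced by proteasome inhibitor MG132 added 30 min after compound; luciferase reporter driven by HSF1 response element in NIH3T3 cells; actives raise luminescence as potentiators of the MG132 stress response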
T2 sequence (P38532 whole entry): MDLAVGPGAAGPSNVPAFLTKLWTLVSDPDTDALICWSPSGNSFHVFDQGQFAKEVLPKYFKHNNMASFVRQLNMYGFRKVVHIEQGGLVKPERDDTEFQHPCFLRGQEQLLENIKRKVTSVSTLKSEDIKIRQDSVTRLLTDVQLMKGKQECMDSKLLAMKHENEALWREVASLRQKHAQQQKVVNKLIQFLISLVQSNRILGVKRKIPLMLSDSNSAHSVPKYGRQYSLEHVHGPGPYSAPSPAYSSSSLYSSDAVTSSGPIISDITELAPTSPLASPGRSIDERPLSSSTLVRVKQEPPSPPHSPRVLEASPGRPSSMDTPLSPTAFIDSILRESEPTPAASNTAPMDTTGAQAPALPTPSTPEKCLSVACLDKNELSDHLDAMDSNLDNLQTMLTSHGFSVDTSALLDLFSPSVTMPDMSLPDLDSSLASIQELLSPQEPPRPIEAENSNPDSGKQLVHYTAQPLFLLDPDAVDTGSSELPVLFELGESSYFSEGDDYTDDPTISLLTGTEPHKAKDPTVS

[4] = biological target: T3, Replicative DNA helicase DnaB (Mycobacterium tuberculosis, UniProt P9WMR3); assay: DnaB intein splicing inhibitors, dose response, biochemical, cell-free fluorescence (AID 449749); format: functional
T3 sequence (P9WMR3 whole entry): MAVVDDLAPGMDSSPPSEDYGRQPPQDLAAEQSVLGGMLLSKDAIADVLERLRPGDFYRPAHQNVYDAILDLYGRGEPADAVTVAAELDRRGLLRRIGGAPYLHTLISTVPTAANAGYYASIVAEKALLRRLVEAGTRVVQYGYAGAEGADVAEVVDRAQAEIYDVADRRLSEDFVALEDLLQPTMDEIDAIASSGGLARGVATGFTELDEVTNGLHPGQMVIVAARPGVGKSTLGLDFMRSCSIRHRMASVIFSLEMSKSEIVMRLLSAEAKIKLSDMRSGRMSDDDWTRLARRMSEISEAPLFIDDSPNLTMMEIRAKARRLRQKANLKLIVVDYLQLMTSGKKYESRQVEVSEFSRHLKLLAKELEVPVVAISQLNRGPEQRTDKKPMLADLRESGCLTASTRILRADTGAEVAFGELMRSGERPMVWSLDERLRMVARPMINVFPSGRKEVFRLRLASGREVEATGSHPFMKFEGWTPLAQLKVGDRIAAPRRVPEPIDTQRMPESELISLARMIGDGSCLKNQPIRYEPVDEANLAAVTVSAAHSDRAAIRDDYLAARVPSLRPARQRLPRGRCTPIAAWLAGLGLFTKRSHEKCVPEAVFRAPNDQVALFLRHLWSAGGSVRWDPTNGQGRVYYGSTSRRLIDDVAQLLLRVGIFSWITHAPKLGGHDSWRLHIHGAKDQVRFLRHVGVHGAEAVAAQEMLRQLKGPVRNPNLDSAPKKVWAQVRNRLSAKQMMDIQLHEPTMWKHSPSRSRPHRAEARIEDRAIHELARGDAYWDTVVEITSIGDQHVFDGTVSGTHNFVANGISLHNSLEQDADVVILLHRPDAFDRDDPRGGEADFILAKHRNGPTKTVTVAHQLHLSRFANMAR

Protein RecA = biological target: T4, Protein RecA (Mycobacterium tuberculosis, UniProt P9WHJ3); assay: Fluorescence Cell-Free Homogeneous Dose Retest to Identify Inhibitors of RecA-Intein Splicing Activity. [Related pubchem assays (depositor defined):AID2097, AID2223, AID489010, AID492950]; format: functional
T4 sequence (P9WHJ3 whole entry): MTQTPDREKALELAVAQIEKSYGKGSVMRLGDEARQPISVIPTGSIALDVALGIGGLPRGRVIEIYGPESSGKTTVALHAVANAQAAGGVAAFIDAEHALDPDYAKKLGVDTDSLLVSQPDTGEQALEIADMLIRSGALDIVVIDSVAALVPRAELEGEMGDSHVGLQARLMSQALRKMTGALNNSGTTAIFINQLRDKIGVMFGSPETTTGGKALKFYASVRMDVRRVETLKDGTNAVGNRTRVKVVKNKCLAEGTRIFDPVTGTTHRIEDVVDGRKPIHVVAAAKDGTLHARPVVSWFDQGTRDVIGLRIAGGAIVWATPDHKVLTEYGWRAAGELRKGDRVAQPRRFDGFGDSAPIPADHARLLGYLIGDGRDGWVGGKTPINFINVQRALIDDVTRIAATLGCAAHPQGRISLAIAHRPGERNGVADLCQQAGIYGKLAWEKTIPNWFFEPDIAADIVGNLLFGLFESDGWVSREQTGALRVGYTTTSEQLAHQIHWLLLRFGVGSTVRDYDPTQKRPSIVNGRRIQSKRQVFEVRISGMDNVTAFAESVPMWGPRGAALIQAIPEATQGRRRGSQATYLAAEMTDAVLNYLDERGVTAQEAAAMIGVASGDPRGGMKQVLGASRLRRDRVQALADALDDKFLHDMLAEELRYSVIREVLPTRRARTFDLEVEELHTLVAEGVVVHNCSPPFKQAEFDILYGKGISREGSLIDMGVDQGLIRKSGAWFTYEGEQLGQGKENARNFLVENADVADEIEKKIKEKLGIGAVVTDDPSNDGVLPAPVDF

[5] = biological target: Induced myeloid leukemia cell differentiation protein Mcl-1 (Homo sapiens, UniProt Q07820); format: functional
Chain of Induced myeloid leukemia cell differentiation protein Mcl-1 (Q07820 whole entry): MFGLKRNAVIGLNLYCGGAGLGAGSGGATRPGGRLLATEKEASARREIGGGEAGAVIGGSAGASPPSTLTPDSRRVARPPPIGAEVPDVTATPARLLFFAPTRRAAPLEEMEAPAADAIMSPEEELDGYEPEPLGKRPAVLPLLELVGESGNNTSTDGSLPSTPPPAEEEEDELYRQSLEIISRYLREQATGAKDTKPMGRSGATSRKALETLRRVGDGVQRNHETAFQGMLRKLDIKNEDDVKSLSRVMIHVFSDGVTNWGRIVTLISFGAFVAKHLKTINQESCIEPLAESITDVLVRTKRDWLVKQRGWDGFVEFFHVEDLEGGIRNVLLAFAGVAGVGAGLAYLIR

BJ [6] = assay: BJ-TERT fibroblast viability loss – cell-based, RAS-independent, luminescence, dose response (AID 1933); format: functional; settings: Homo sapiens
[7] = DRD fibroblast viability loss – cell-based, non-viral oncogenic, luminescence, dose response (AID 1934); format: functional; settings: Homo sapiens
BJ [8] = assay: BJ-TERT-LT-ST fibroblast viability loss – cell-based, RAS-independent, luminescence, dose response (AID 1935); format: functional; settings: Homo sapiens;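 also: BJ fibroblasts immortalized with TERT plus LT and ST oncogenes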
BJ [9] = assay: cells; format: functional, cell-based; settings: Homo sapiens
[10] = fluconazole-exposed Candida albicans growth modulators – fluorescence, retest, confirmation (AID 2467); format: functional, cell-based
[11] = NIH-3T3 fibroblast cytotoxicity, dose response, cytotoxicity control, cell-based, fluorescence, Alamar Blue, secondary assay (AID 2327); format: functional;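 also: NIH-3T3 mouse fibroblasts cultured with fluconazole at 8 µg/mL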
Genome polyprotein = Genome polyprotein (dengue virus type 2, UniProt P29990); assay: flavivirus cap methylation enzyme inhibition – biochemical, confirmation dose response, primary screen (AID 588689); format: functional
Chain of Genome polyprotein (P29990 2492-3391 limits assumed): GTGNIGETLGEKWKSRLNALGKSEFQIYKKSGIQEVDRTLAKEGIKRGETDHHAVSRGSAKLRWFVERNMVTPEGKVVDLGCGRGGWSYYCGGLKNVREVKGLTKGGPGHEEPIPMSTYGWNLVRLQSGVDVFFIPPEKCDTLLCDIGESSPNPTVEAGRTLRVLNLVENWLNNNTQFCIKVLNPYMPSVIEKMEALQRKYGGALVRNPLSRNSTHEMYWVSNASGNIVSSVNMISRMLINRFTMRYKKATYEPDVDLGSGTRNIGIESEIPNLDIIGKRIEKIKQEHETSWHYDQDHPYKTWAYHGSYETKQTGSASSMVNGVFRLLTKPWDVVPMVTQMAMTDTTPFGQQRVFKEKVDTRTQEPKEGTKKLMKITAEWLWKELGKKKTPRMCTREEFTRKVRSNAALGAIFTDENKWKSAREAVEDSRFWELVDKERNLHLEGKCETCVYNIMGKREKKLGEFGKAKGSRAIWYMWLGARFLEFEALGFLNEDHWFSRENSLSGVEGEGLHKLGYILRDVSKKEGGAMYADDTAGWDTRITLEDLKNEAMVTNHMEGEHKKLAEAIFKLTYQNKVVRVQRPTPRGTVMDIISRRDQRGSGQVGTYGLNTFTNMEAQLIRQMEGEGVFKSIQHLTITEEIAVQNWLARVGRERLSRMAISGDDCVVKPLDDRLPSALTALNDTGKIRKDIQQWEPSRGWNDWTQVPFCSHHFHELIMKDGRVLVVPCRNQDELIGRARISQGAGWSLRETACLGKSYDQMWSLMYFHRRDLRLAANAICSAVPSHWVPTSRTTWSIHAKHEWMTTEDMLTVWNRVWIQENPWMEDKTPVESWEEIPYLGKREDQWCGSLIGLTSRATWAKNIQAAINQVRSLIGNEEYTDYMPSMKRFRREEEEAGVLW

[12] = P. falciparum Dd2 growth inhibitors, dose response, SYBR Green, cherry-picked samples (AID 1159567); format: functional, cell-based

Row | Structure (SMILES) | IC50 [1] | EC50 [2] | EC50 [3] | also measured
1 | C=C(C)C(=O)Oc1ccc(N2C(=O)[C@@H]3C4C=CC(C4)[C@@H]3C2=O)cc1 | > 47.1 µM (inactive) | > 53 µM (inactive) |  | 
2 | COc1ccc(N2C(=O)C(Cl)=C(Oc3cccc(OC)c3)C2=O)cc1 |  |  | 1.84 µM (active) | AC50 [4]: 18.9 µM (active); EC50 (Protein RecA): 10.7 µM (active)
3 | CCN(c1ccc(NC(=O)COC(=O)c2cc3ccccc3oc2=O)cc1)C(C)C |  |  |  | IC50 [5]: 25.3 µM (not active)
4 | O=C(CCC(=O)OCC(F)(F)C(F)F)NCc1ccccc1 | > 47.1 µM (inactive) | > 53 µM (inactive) |  | 
5 | CC1=C(C(=O)OC(C)C)C(c2cccs2)N2C(=O)C(C)SC2=N1 (configuration not stated) | > 47.1 µM (inactive) | > 53 µM (inactive) |  | 
6 | c1ccc(-c2cnnc(SCc3cn4cccnc4n3)n2)cc1 |  |  |  | EC50 (BJ [6]): > 150 µM (not active); EC50 [7]: 24.9 µM (active); EC50 (BJ [8]): > 150 µM (inconclusive); EC50 (BJ [9]): > 150 µM (inconclusive)
7 | Cc1noc(C)c1COC(=O)c1ccccc1Oc1ccccc1 |  |  | > 260 µM (inactive) | 
8 | COc1ccc(C(CC(=O)c2ccc(C)cc2)C(C#N)C#N)cc1OC (configuration not stated) |  |  | 5.54 µM (active) | AC50 [4]: 11.4 µM (active); EC50 (Protein RecA): 4.79 µM (active)
9 | CC(C)c1cc(N2CCC(=O)NC2=O)cc(C(=O)O)c1O | > 47.1 µM (inactive) | > 53 µM (inactive) |  | 
10 | Cc1ccc2nc(NCc3ccccc3)c(C=O)c(=O)n2c1 |  |  | > 260 µM (inactive) | 
11 | CCCc1nc2ccc(NC(=O)c3cccs3)cc2c(=O)n1Cc1ccccc1Cl |  |  | > 260 µM (inactive) | 
12 | CC1CCCCN1C(C(=O)O)c1ccccc1 (configuration not stated) | > 47.1 µM (inactive) | > 53 µM (inactive) |  | 
13 | CCOc1ccc(N2CC(C(=O)NCc3nnnn3-c3ccc(C)c(C)c3)CC2=O)cc1 (configuration not stated) | > 47.1 µM (inactive) | > 53 µM (inactive) |  | 
14 | CCC(C)NS(=O)(=O)c1ccc(OCC(=O)NCc2ccccn2)cc1 (configuration not stated) | > 47.1 µM (inactive) | > 53 µM (inactive) |  | 
15 | CC1CCN(c2ccc(NC(=O)Cc3ccccc3)cc2)CC1 |  |  |  | IC50 [5]: 5.35 µM (not active)
16 | O=C(CCN1C(=O)/C(=C/c2ccc(Cl)cc2)SC1=S)Nc1cccnc1 |  |  |  | EC50 (BJ [6]): 14.9 µM (active); EC50 [7]: 24.7 µM (active); EC50 (BJ [8]): > 150 µM (not active); EC50 (BJ [9]): > 150 µM (not active)

Row | Structure (SMILES) | IC50 [1] | EC50 [2] | EC50 [3] | also measured
17 | Nc1ccc2c(c1Cl)C(=O)c1ccc(N)c(Cl)c1C2=O |  |  |  | IC50 [5]: 2.76 µM (active)
18 | CC(C)c1ccc2c(c1)[C@H]1OCC[C@H]1[C@@H](c1cccs1)N2 |  |  | > 260 µM (inactive) | 
19 | COc1ccc(OC)c(N(CC(=O)N2CCC(C)CC2)S(=O)(=O)c2ccccc2)c1 |  |  | > 260 µM (inactive) | 
20 | O=C(CSc1nnc(-c2ccco2)n1Cc1ccccc1)OC1CCCCC1 |  |  | 35.8 µM (active) | EC50 [10]: > 38 µM (not active); EC50 [11]: > 150 µM (inactive)
21 | Cc1c(-c2nnc(S)n2-c2ccc(C(F)(F)F)cc2)nnn1-c1ccccc1 |  |  | > 260 µM (inactive) | 
22 | COc1cc(C(=O)NCCc2ccc(F)cc2)ccc1OCC(=O)N1CCOCC1 |  |  | > 260 µM (inactive) | 
23 | CC(C)c1ccc(N(C(=O)CNC(=O)c2ccco2)C(C(=O)NC2CCCC2)c2ccncc2)cc1 (configuration not stated) |  |  | > 260 µM (inactive) | 
24 | COC(=O)C(CC(=O)c1cccc(OC)c1)c1ccc(F)cc1 (configuration not stated) | > 47.1 µM (inactive) | > 53 µM (inactive) |  | 
25 | Cc1ccc(NS(=O)(=O)c2ccc(C(=O)Nc3nncs3)cc2)cc1 | > 47.1 µM (inactive) | > 53 µM (inactive) |  | 
26 | COC1=CC(=O)C(O)=C(CCCCCCC/C=C/CCCCCCCC2=C(O)C(=O)C=C(OC)C2=O)C1=O |  |  |  | AC50 [4]: 2.6 µM (active); EC50 [10]: > 38 µM (not active); EC50 (Protein RecA): 2.13 µM (active); IC50 (Genome polyprotein): 10.8 µM (active); EC50 [11]: > 160 µM (inactive)
27 | COc1ccccc1CNC(=O)CCc1nnc2ccc(NCCCN3CCCC3=O)nn12 | > 47.1 µM (inactive) | > 53 µM (inactive) |  | 
28 | O=C(Cc1ccccn1)N1CCCCN2[C@@H](CO)[C@@H](c3ccc(C#Cc4ccccc4)cc3)[C@@H]2C1 |  |  |  | AC50 [12]: 4.71 µM (active)
29 | COc1ccc2c3c(n(C)c2c1)[C@@H](CO)N(C(=O)c1ccc(F)cc1)CC31CN(CC2CCOCC2)C1 |  |  |  | AC50 [12]: 12.1 µM (active)
30 | CO[C@@H]1CN(C)C(=O)c2cc(NC(=O)Cc3ccccc3)ccc2OC[C@H](C)N(C(=O)c2ccccc2F)C[C@@H]1C |  |  |  | AC50 [12]: 7.66 µM (active)
31 | COc1ccc(C#Cc2ccc3c(c2)[C@H]2[C@H](CCN2C(=O)c2ccccn2)[C@@H](CO)N3)cc1 |  |  |  | AC50 [12]: 3.75 µM (active)
